pEC50: −log10 of the molar value.
biological target: human mGluR4 (Homo sapiens, UniProt Q14833); assay: potentiation of human mGluR4 in transfected CHO cells, Ca2+-sensitive dye fluorescence, EC20 agonist; details: CHO, read-out: % Glu Max
Sequence (Q14833 33-912): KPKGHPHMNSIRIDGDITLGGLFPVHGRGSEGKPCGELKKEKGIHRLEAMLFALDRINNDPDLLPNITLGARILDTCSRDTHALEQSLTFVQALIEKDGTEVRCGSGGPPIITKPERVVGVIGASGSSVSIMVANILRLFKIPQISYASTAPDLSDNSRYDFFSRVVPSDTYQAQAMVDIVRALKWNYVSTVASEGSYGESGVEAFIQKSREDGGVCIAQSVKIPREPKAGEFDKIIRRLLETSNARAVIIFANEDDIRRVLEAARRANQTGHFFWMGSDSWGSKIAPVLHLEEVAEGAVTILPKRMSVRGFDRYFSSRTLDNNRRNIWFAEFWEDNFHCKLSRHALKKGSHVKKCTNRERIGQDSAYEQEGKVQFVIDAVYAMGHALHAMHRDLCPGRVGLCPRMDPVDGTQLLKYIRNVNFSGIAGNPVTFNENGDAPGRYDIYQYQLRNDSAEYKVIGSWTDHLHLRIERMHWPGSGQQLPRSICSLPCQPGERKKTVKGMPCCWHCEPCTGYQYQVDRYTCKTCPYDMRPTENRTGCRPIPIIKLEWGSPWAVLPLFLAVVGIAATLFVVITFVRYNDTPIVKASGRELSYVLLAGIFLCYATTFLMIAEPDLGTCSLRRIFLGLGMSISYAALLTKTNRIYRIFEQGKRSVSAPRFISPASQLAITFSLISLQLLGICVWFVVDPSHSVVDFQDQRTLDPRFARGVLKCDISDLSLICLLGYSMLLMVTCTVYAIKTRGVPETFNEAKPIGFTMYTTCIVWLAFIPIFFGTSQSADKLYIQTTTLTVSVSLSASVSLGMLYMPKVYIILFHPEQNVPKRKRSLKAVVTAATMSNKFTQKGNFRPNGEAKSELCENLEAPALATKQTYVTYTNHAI

Row | Emax | Compound
1 | 116% | O=C(Nc1ccn(S(=O)(=O)c2ccccc2F)c1)c1ccccn1 [Example 8]
2 | 58% | O=C(Nc1ccn(S(=O)(=O)c2ccc3ccccc3c2)c1)c1ccccn1 [Example 36]
3 | 152% | O=C(Nc1ccn(S(=O)(=O)CCc2ccccc2)c1)c1ccccn1 [Example 40, N-(1-(phenethylsulfonyl)-1H-pyrrol-3-yl)picolinamide]
4 | 159% | O=C(Nc1ccn(S(=O)(=O)Cc2ccc(Cl)c(Cl)c2)c1)c1ccccn1 [Example 34]

same assay, conditions: EC50 (nM), potentiation of EC20 agonist response; Table I

Row | EC50 | Compound
5 | 174 nM | O=C(Nc1ccn(S(=O)(=O)c2ccccc2F)c1)c1ccccn1 [Example 8]
6 | > 10000 nM | O=C(Nc1ccn(S(=O)(=O)c2ccc3ccccc3c2)c1)c1ccccn1 [Example 36]
7 | 483 nM | O=C(Nc1ccn(S(=O)(=O)CCc2ccccc2)c1)c1ccccn1 [Example 40, N-(1-(phenethylsulfonyl)-1H-pyrrol-3-yl)picolinamide]

same assay, conditions: hEC50, human mGluR4 potentiation; unit inferred

Row | pEC50 | Compound
8 | 5.42 | O=C(Nc1ccn(S(=O)(=O)c2cccnc2Cl)c1)c1ccccn1 [Example 137, N-(1-((2-chloropyridin-3-yl)sulfonyl)-1H-pyrrol-3-yl)picolinamide]
9 | 6.18 | COc1ccc(S(=O)(=O)n2ccc(NC(=O)c3ccccn3)c2)cc1Cl [Example 64, N-(1-((3-chloro-4-methoxyphenyl)sulfonyl)-1H-pyrrol-3-yl)picolinamide]
10 | 6.84 | CN1CCOc2cc(S(=O)(=O)n3ccc(NC(=O)c4ccccn4)c3)ccc21 [Example 146, N-(1-((4-methyl-3,4-dihydro-2H-benzo[b][1,4]oxazin-7-yl)sulfonyl)-1H-pyrrol-3-yl)picolinamide]
11 | 6.35 | Cc1cc(S(=O)(=O)n2ccc(NC(=O)c3ccccn3)c2)ccc1Cl [Example 83, N-(1-((4-chloro-3-methylphenyl)sulfonyl)-1H-pyrrol-3-yl)picolinamide]
12 | 6.31 | O=C(Nc1ccn(S(=O)(=O)Cc2ccccc2Cl)c1)c1cscn1 [Example 62, N-(1-((2-chlorobenzyl)sulfonyl)-1H-pyrrol-3-yl)thiazole-4-carboxamide]
13 | 5.71 | O=C(Nc1ccn(S(=O)(=O)c2ccc3c(c2)OCO3)c1)c1ccco1 [Example 166, N-(1-(benzo[d][1,3]dioxol-5-ylsulfonyl)-1H-pyrrol-3-yl)furan-2-carboxamide]
14 | 5.83 | O=C(Nc1ccn(S(=O)(=O)c2ccccn2)c1)c1ccccn1 [Example 160, N-(1-(pyridin-2-ylsulfonyl)-1H-pyrrol-3-yl)picolinamide]
15 | 6.04 | O=C1CCc2ccc(S(=O)(=O)n3ccc(NC(=O)c4ccccn4)c3)cc2N1 [Example 152, N-(1-((2-oxo-1,2,3,4-tetrahydroquinolin-7-yl)sulfonyl)-1H-pyrrol-3-yl)picolinamide]
16 | 6.65 | O=C(Nc1ccn(S(=O)(=O)c2ccc(CCl)cc2)c1)c1ccccn1 [Example 147, N-(1-((4-(chloromethyl)phenyl)sulfonyl)-1H-pyrrol-3-yl)picolinamide]
17 | 6.40 | Cc1cc(S(=O)(=O)n2ccc(NC(=O)c3ccccn3)c2)ccc1F [Example 77, N-(1-((4-fluoro-3-methylphenyl)sulfonyl)-1H-pyrrol-3-yl)picolinamide]
18 | 5.72 | O=C(Nc1ccn(S(=O)(=O)Cc2ccc(F)cc2F)c1)c1nccs1 [Example 55, N-(1-((2,4-difluorobenzyl)sulfonyl)-1H-pyrrol-3-yl)thiazole-2-carboxamide]
19 | 6.66 | N#Cc1ccc(S(=O)(=O)n2ccc(NC(=O)c3ccccn3)c2)cc1 [Example 130, N-(1-((4-cyanophenyl)sulfonyl)-1H-pyrrol-3-yl)picolinamide]
20 | 6.96 | O=C(Nc1ccn(S(=O)(=O)c2ccc3c(c2)OCO3)c1)c1ccccn1 [Example 133, N-(1-(benzo[d][1,3]dioxol-5-ylsulfonyl)-1H-pyrrol-3-yl)picolinamide]
21 | 5.92 | O=C(Nc1ccn(S(=O)(=O)c2ccc(CO)cc2)c1)c1ccccn1 [Example 161, N-(1-((4-(hydroxymethyl)phenyl)sulfonyl)-1H-pyrrol-3-yl)picolinamide]

The next lines start with the compound.

Row | Compound | pEC50
22 | Cc1cc(S(=O)(=O)n2ccc(NC(=O)c3ccccn3)c2)c(F)cc1Cl [Example 113, N-(1-((4-chloro-2-fluoro-5-methylphenyl)sulfonyl)-1H-pyrrol-3-yl)picolinamide] | 6.46
23 | O=C(Nc1cn(S(=O)(=O)c2ccc(Cl)cc2)c2ccccc12)c1ccccn1 [Example 111, N-(1-((4-chlorophenyl)sulfonyl)-1H-indol-3-yl)picolinamide] | 4.91
24 | Cc1ccc(F)c(S(=O)(=O)n2ccc(NC(=O)c3ccccn3)c2)c1 [Example 89, N-(1-((2-fluoro-5-methylphenyl)sulfonyl)-1H-pyrrol-3-yl)picolinamide] | 6.55
25 | O=C(Nc1ccn(S(=O)(=O)c2ccc(Cl)cc2F)c1)c1ccco1 [Example 169, N-(1-((4-chloro-2-fluorophenyl)sulfonyl)-1H-pyrrol-3-yl)furan-2-carboxamide] | 5.38
26 | O=C(Nc1ccn(S(=O)(=O)Cc2ccc(F)cc2F)c1)c1ccco1 [Example 56, N-(1-((2,4-difluorobenzyl)sulfonyl)-1H-pyrrol-3-yl)furan-2-carboxamide] | 5.43
27 | Cc1c(F)cccc1S(=O)(=O)n1ccc(NC(=O)c2ccccn2)c1 [Example 115, N-(1-((3-fluoro-2-methylphenyl)sulfonyl)-1H-pyrrol-3-yl)picolinamide] | 6.41
28 | O=C(Nc1ccn(S(=O)(=O)c2cccs2)c1)c1ccccn1 [Example 134, N-(1-(thiophen-2-ylsulfonyl)-1H-pyrrol-3-yl)picolinamide] | 7.10
29 | O=C(Nc1ccn(S(=O)(=O)c2ccc(Cl)c(Cl)c2)c1)c1ccccn1 [Example 100, N-(1-((3,4-dichlorophenyl)sulfonyl)-1H-pyrrol-3-yl)picolinamide] | 6.33
30 | CC(c1ccc(Cl)cc1)S(=O)(=O)n1ccc(NC(=O)c2ccccn2)c1 (centres unmarked) [Example 109, N-(1-((1-(4-chlorophenyl)ethyl)sulfonyl)-1H-pyrrol-3-yl)picolinamide] | 5.72
31 | O=C(Nc1ccn(S(=O)(=O)c2cc(Cl)ccc2Cl)c1)c1ccccn1 [Example 78, N-(1-((2,5-dichlorophenyl)sulfonyl)-1H-pyrrol-3-yl)picolinamide] | 7.24
32 | O=C(Nc1ccn(S(=O)(=O)c2ccc(N3CCCC3=O)cc2)c1)c1ccccn1 [Example 154, N-(1-((4-(2-oxopyrrolidin-1-yl)phenyl)sulfonyl)-1H-pyrrol-3-yl)picolinamide] | 6.27
33 | O=C(Nc1ccn(S(=O)(=O)c2cccc(Cl)c2F)c1)c1ccco1 [Example 162, N-(1-((3-chloro-2-fluorophenyl)sulfonyl)-1H-pyrrol-3-yl)furan-2-carboxamide] | 5.60
34 | CC(c1ccccc1Cl)S(=O)(=O)n1ccc(NC(=O)c2ccccn2)c1 (centres unmarked) [Example 106, N-(1-((1-(2-chlorophenyl)ethyl)sulfonyl)-1H-pyrrol-3-yl)picolinamide] | 5.98
35 | Cc1ccc(S(=O)(=O)n2ccc(NC(=O)c3ccccn3)c2)cc1C [Example 82, N-(1-((3,4-dimethylphenyl)sulfonyl)-1H-pyrrol-3-yl)picolinamide] | 6.86
36 | Cc1cc(F)ccc1S(=O)(=O)n1ccc(NC(=O)c2ccccn2)c1 [Example 87, N-(1-((4-fluoro-2-methylphenyl)sulfonyl)-1H-pyrrol-3-yl)picolinamide] | 6.95
37 | O=C(Nc1ccn(S(=O)(=O)c2ccc(Cl)cn2)c1)c1ccco1 [Example 167, N-(1-((5-chloropyridin-2-yl)sulfonyl)-1H-pyrrol-3-yl)furan-2-carboxamide] | 5.54
38 | Cn1ccc(S(=O)(=O)n2ccc(NC(=O)c3ccccn3)c2)n1 [Example 159, N-(1-((1-methyl-1H-pyrazol-3-yl)sulfonyl)-1H-pyrrol-3-yl)picolinamide] | 6.03

From US20130040944A1, “MGLUR4 ALLOSTERIC POTENTIATORS, COMPOSITIONS, AND METHODS OF TREATING NEUROLOGICAL DYSFUNCTION” (VANDERBILT UNIVERSITY, priority 2009, published 2013)
